Experimental findings from ChEMBL document CHEMBL1137335, “Multivalent effects of RGD peptides obtained by nanoparticle display” (J Med Chem, 2006) are described below.

Positions of bridges follow the written chain, without caps; N, C: chain ends. Residues, ends and D or L forms follow the SMILES beside them. *: point of attachment. 5FAM = O=C1OC2(c3ccc(O)cc3Oc3cc(O)ccc32)c2ccc(C(=O)*)cc21

One may read the EC50 as the concentration at which the effect is half-maximal. Higher therefore signals a less potent agent. For orientation: IC50 means the point on the concentration scale where inhibition reaches its midpoint. Higher therefore signals weaker potency in that assay.

The subject of assay [1] is BT-20. The experiment in a line: Uptake in human BT20 cells. In kind it is functional, cell-based.
The subject of assay [2] is BT-20. The experiment in a line: Antiadhesive activity against human BT20 cells. In kind it is functional, cell-based.
For assay [3], the system named is BT-20. Briefly: Level of peptide binding to human BT20 cells indicating presence of integrin alphaVbeta3. In kind it is functional.
Assay [4] deals with HUVEC. Briefly: Uptake in human HUVEC. In kind it is functional, cell-based.
Assay [5] deals with HUVEC. The experiment in a line: Antiadhesive activity against human HUVEC. In kind it is functional, cell-based.
Another assay concerns 9L. Briefly: Level of peptide binding to rat 9L cells indicating presence of integrin alphaVbeta3. In kind it is functional.

In the case of `NCC(=O)N[C@@H](CO)C(=O)N[C@@H](CO)C(=O)N[C@@H](CCCCNC(=O)c1ccc2c(c1)C(=O)OC21c2ccc(O)cc2Oc2cc(O)ccc21)C(=O)NCC(=O)NCC(=O)NCC(=O)N[C@H]1CSSC[C@@H](C(=O)O)NC(=O)[C@H](CC(=O)O)NC(=O)CNC(=O)[C@H](CCCN=C(N)N)NC1=O` (H-GSSK(5FAM)GGGCRGDC-OH; disulfide 8-12), the EC50 in the assay with BT-20 [1] was determined as 1.2 µM; in the assay on HUVEC [4] it was 6 µM. Besides, the figures for the IC50 with BT-20 [2] and in the assay on HUVEC [5] were 130 µM and 0.76 µM, respectively. In addition, the figures for the Activity in the assay on BT-20 [3] and in the assay with 9L were 0.82 pmol and 0.16 pmol, respectively.
